{
  "source": "patent US20060234910A1",
  "about": "“Methods for the treatment of insulin resistance and disease states characterized by insulin resistance” (priority 2005, published 2006)",
  "key": {"TR3 gene expression": {"tested_on": "TR3 gene expression", "assay": "Quantitative real-time PCR of TR3 gene expression in 3T3-L1 adipocytes", "assay_type": "cell-based", "settings": "for insulin-stimulated TR3 gene expression: 1 hour", "protocol": "(§1) FIGS. 3A-3C show the effect of insulin stimulation on MINOR and TR3 gene expression in 3T3-L1 adipocytes. FIGS. 3A and 3B show insulin induces the expression of MINOR and TR3 gene expression in 3T3-L1 adipocytes. Fully differentiated 3T3-L1 adipocytes were treated with 100 nM of insulin for up to 8 hours (treated) or 0 nM insulin (0 hour control). The control and treated adipocytes were lysed and the mRNAs were extracted for cDNA synthesis. Quantitative real-time PCR was used to measure expression of MINOR (FIG. 3A) and TR3 (FIG. 3B) genes. Results represent the mean±SE from three separate experiments. […] Fully differentiated 3T3-L1 adipocytes were treated with 100 nM of insulin alone (control) or plus LY294002 (PI 3-kinase inhibitor), SB203580 (p38 MAP kinase inhibitor), Ro318220 (protein kinase C inhibitor) for one hour. The control and treated adipocytes were lysed and the mRNAs were extracted for cDNAs synthesis. A quantitative real-time PCR was performed for detecting the expression levels of MINOR and TR3 genes. Results represent the mean±SE from three separate experiments.\n(§2) Fully differentiated 3T3-L1 adipocytes were treated with 10 uM of the indicated thiazolidinedione (troglitazone or pioglizatone) from 0 to 48 hours. Control cells received vehicle alone. The control and treated adipocytes were lysed and the mRNAs were extracted for cDNA synthesis. Quantitative real-time PCR was used to measure expression levels of MINOR (FIGS. 4A and 4B) and TR3 (FIGS. 4C and 4D) genes. Results represent the mean±SE from three separate experiments.\n(§3) Fully differentiated 3T3-L1 adipocytes were treated with 100 nM of insulin for various times (0 to 8 hours; the 0 hour time point served as the control and received no added insulin). The control and treated adipocytes were lysed and the mRNAs were extracted for cDNAs synthesis. A quantitative real-time PCR was performed for detecting the expression levels of MINOR and TR3 genes. […] Insulin also stimulated TR3 gene expression adipocytes, but with a different temporal response with TR3 expression levels returning to baseline by hour 2 after treatment (FIG. 3B).\n(§4) The stimulatory effect of insulin on MINOR and TR3 gene expression was dependent on signal transduction via the PI-3-kinase pathway, the p38 MAP-K pathway and the protein kinase C (PKC) pathway. […] A quantitative real-time PCR was performed for detecting the expression levels of MINOR and TR3 genes. […]\n(§5) Fully differentiated 3T3-L1 adipocytes were treated with 10 uM of the indicated thiazolidinedione (troglitazone or pioglizatone) from 0 to 48 hours. […] Quantitative real-time PCR was used to measure expression levels of MINOR (FIGS. 4A and 4B) and TR3 (FIGS. 4C and 4D) genes. […]"}, "MINOR gene expression": {"tested_on": "MINOR gene expression", "assay": "Quantitative real-time PCR of MINOR gene expression in 3T3-L1 adipocytes", "assay_type": "cell-based", "settings": "for insulin-stimulated MINOR gene expression: 1 hour", "protocol": "as §1, §2, §3, §4, §5"}, "Nurr1 gene expression": {"tested_on": "Nurr1 gene expression", "assay": "Nurr1 gene expression in 3T3-L1 adipocytes", "assay_type": "cell-based", "settings": "fully differentiated 3T3-L1 adipocytes, 100 nM insulin; data not shown"}, "[1]": {"tested_on": "MINOR gene expression in skeletal muscle", "assay": "cDNA microarray of skeletal muscle biopsies, basal vs hyperinsulinemia (MINOR)", "assay_type": "in vivo, human", "settings": "insulin stimulation, three hours of hyperinsulinemia vs basal", "text": "(§6) The primary target tissues for insulin action are skeletal muscle, adipose tissue, and the liver tissue. Skeletal muscle is the predominant target tissue for insulin-mediated glucose uptake (responsible for approximately 95% of glucose uptake), and is a critical locus of insulin resistance. Defects in glucose uptake in skeletal muscle is a predominate contributor to the clinical manifestations of insulin resistance. The molecular basis for insulin resistance is not well understood, but appears to involve defects in insulin signal transduction and abnormal cellular trafficking of glucose transporter proteins (5). To better understand the molecular defects responsible for human insulin resistance, skeletal muscle biopsies were obtained from volunteers in three metabolically-defined subgroups: A) insulin sensitive: (B) insulin resistant; and (C) type 2 diabetic. Biopsies from each subgroup were obtained under both basal conditions and after three hours of hyperinsulinemia. Differential gene expression in these muscle biopsies was assessed using cDNA microarray technology utilizing the Affymetrix Hu95A gene expression chips (carried out as per manufacturer's instructions). The effect of insulin on gene expression in human muscle has not been extensively studied, and most prior studies focused on single genes or small numbers of genes with a limited focus (6-8). […]"}, "[2]": {"tested_on": "GLUT4 glucose transporters at plasma membrane", "assay": "Plasma membrane lawn assay of GLUT4 in adipocytes", "assay_type": "cell-based", "settings": "control (LacZ transfected) adipocytes, 100 nM insulin, 30 min vs basal", "protocol": "FIGS. 6A-6D show the effect of MINOR gene expression on insulin-mediated recruitment of GLUT4 glucose transporters to plasma membrane. MINOR gene transduced 3T3-L1 fibroblasts and control LacZ transduced fibroblasts were grown on glass cover slips and differentiated into adipocytes. Adipocytes were then stimulated for 30 min with (insulin-stimulated) or without (basal) 100 nM of insulin. The adipocytes were then washed, and disrupted by sonication leaving and plasma membrane sheets attached to cover slips (plasma membrane lawn assay) (26). Plasma membrane associated GLUT4 was detected using a polyclonal anti-GLUT4 antibody and a FITC-conjugated secondary antibody. (A) basal LacZ expressing adipocytes; (B) insulin-stimulated LacZ expressing adipocytes; (C) basal Minor expressing adipocytes; (D) insulin-stimulated Minor expressing adipocytes.\nThese experiments use the “plasma membrane lawn” technique (26) to quantify the relative amounts of GLUT4 glucose transporter proteins in the cell surface plasma membrane. MINOR gene transduced 3T3-L1 fibroblasts and control LacZ transduced fibroblasts were grown on glass cover slips and differentiated into adipocytes. […] Plasma membrane associated GLUT4 was detected using a polyclonal anti-GLUT4 antibody and a FITC-conjugated secondary antibody."}, "[3]": {"tested_on": "TR3 gene expression in skeletal muscle", "assay": "cDNA microarray of skeletal muscle biopsies, basal vs hyperinsulinemia (TR3)", "assay_type": "in vivo, human", "settings": "insulin stimulation, three hours of hyperinsulinemia vs basal", "text": "as §6"}, "[4]": {"settings": "3T3-L1 adipocytes, 100 nM insulin plus inhibitor 50 nM"}, "[5]": {"settings": "3T3-L1 adipocytes, 100 nM insulin plus inhibitor 10 nM"}, "[6]": {"settings": "3T3-L1 adipocytes, 100 nM insulin"}, "[7]": {"settings": "fully differentiated 3T3-L1 adipocytes, 100 nM insulin, 0 to 8 hours"}},
  "data": [
    {"compound": "Cn1cc(C2=C(c3cn(CCCSC(=N)N)c4ccccc34)C(=O)NC2=O)c2ccccc21", "note": "[Ro318220, reference compound]", "values": [
      {"measurement": "insulin-stimulated TR3 gene expression", "setting": "TR3 gene expression; [4]", "value": "decreased the ability of insulin to stimulate"},
      {"measurement": "insulin-stimulated MINOR gene expression", "setting": "MINOR gene expression; [4]", "value": "decreased the ability of insulin to stimulate"}
    ]},
    {"compound": "C[S+]([O-])c1ccc(-c2nc(-c3ccncc3)c(-c3ccc(F)cc3)[nH]2)cc1", "note": "(stereo not drawn) [SB203580, reference compound]", "values": [
      {"measurement": "insulin-stimulated TR3 gene expression", "setting": "TR3 gene expression; [5]", "value": "decreased the ability of insulin to stimulate"},
      {"measurement": "insulin-stimulated MINOR gene expression", "setting": "MINOR gene expression; [5]", "value": "decreased the ability of insulin to stimulate"}
    ]},
    {"compound": "insulin", "values": [
      {"measurement": "Nurr1 gene expression", "setting": "Nurr1 gene expression", "value": "not stimulated"},
      {"measurement": "time at which TR3 expression levels return to baseline after treatment", "setting": "TR3 gene expression; [6]", "value": "≤ 2", "unit": "h"},
      {"measurement": "TR3 gene expression", "setting": "TR3 gene expression; [7]", "value": "stimulated"},
      {"measurement": "MINOR gene expression in human skeletal muscles (microarray)", "setting": "[1]", "value": "strongly induced"},
      {"measurement": "plasma membrane associated GLUT4", "setting": "[2]", "value": "increased GLUT4 staining in the plasma membrane"},
      {"measurement": "period over which the increase in MINOR gene expression is sustained", "setting": "MINOR gene expression; [6]", "value": 4, "unit": "h"},
      {"measurement": "MINOR gene expression", "setting": "MINOR gene expression; [7]", "value": "stimulated"},
      {"measurement": "TR3 gene expression in human skeletal muscles (microarray)", "setting": "[3]", "value": "strongly induced"}
    ]}
  ]
}
